Values of other authors, collected in US20140271704A1, “METHODS OF PRODUCING NUTRITIONAL SUPPLEMENTS USING MUSHROOMS FROM THE SPECIES Poria cocos OR Flammulina velutipes” (JARROW FORMULAS, INC., priority 2013, published 2014).

How the values were obtained:
homocysteine = conditions: human; compared with racemic mixtures of equal amounts of L- and D-isomer
[1] = oral, animal

SMILES	reduction of homocysteine versus racemic mixture (homocysteine)	absorption from the intestinal tract [1]
CN1c2c(nc(N)[nH]c2=O)NCC1CNc1ccc(C(=O)N[C@@H](CCC(=O)O)C(=O)O)cc1 (single isomer, unassigned) [L-isomer of 5-MTHF, 5-methyltetrahydrofolate]	superior to racemic mixtures	–
CN1c2c(nc(N)[nH]c2=O)NCC1CNc1ccc(C(=O)N[C@@H](CCC(=O)O)C(=O)O)cc1 (some centres unmarked) [5-MTHF, 5-methyltetrahydrofolate]	–	readily absorbed from the intestinal tract without degradation
